No end group written: not given here.
Columns and labels:
[1] = system: SD rats with bleomycin-induced pulmonary fibrosis; assay: Bleomycin-induced pulmonary fibrosis animal model; type: in vivo; details: bleomycin 5 mg/kg intratracheal, polypeptides 7.5 mg/kg subcutaneous twice a day, positive drug 25 mg/kg intragastric once a day, 14 days
Procedure: SD rats were anesthetized by intraperitoneal injection of 1 mL/100 g 4% chloral hydrate. After anesthesia, the rats were fixed and their necks were disinfected by using cotton with 75% alcohol. The skin of the rat neck was longitudinally cut with scissors, and the fascia and muscle were longitudinally bluntly torn with tweezers to expose the trachea. A syringe was inserted into the trachea to inject 5 mg/kg bleomycin, while a blank group was injected with an equal amount of normal saline. Then a rat plate was quickly erected and rotated, the rats' breathing was observed, the neck wound was sterilized after rotation and was sewn, and an amoxicillin anti-inflammatory drug was sprinkled on the suture. After the operation, the rats were put back into a dry and clean cage for resting, waiting was performed for awakening. The rats were awakened after about 1-2 hours, and then fed normally. On the 7th day after modeling, modeling group animals randomly fell into a model group, a Nintedanib positive drug group, polypeptide I, II, III and IV dosage groups, and a normal control group, and the groups were administered separately for an administration cycle of 14 days. Living situations of rats were observed every day and their weights were weighed.

protozoa = assay: Mouse pneumonia model, protozoal pneumonia; type: in vivo, BALB/C mice; details: average values±standard deviation
Description: (§1) A mouse pneumonia model was successfully established by using a nasal drip method. BALB/C mice with a body weight of 18-24 g were selected, and then anesthetized with ether on day 0, day 1 and day 2, respectively, prepared streptococcus pneumoniae bacteria solution, adenovirus concentrated solution, mycoplasma pneumoniae, chlamydia pneumoniae, protozoa and pneumonia fungi were slowly dropped into the nasal cavity of the mice, so that the bacteria solutions entered the trachea and bronchi, and the bacteria solutions were prevented from flowing into the esophagus during the operation to avoid inactivation of the bacteria solutions, so that the mouse pneumonia model was established. After the model was successfully established, the polypeptide according to the present disclosure was administered, as shown in FIG. 7 and Table 9. […] The experimental results are represented on the basis of average values±standard deviation.

pneumonia fungi = assay: Mouse pneumonia model, fungal pneumonia; type: in vivo, BALB/C mice; details: average values±standard deviation
Description: as §1

adenovirus = assay: Mouse pneumonia model, viral pneumonia; type: in vivo, BALB/C mice; details: average values±standard deviation
Description: as §1

chlamydia pneumoniae = assay: Mouse pneumonia model, chlamydia pneumonia; type: in vivo, BALB/C mice; details: average values±standard deviation
Description: as §1

mycoplasma pneumoniae = assay: Mouse pneumonia model, mycoplasma pneumonia; type: in vivo, BALB/C mice; details: average values±standard deviation
Description: as §1

pulmonary infections = assay: Mouse pneumonia model, pneumonia caused by pulmonary infections; type: in vivo, BALB/C mice; details: average values±standard deviation
Description: as §1

streptococcus pneumoniae = assay: Mouse pneumonia model, bacterial pneumonia; type: in vivo, BALB/C mice; details: average values±standard deviation
Description: as §1

[2] = system: SD rats with renal fibrosis; assay: Renal fibrosis animal model (ureter ligation), TGF-β1 in serum; type: in vivo; details: 7.5 mg/kg subcutaneous twice a day, 14 days, vs model group; FIG. 4
Procedure: A renal fibrosis animal model was established. SD rats were anesthetized with 4% chloral hydrate, injected with 1 mL/100 g intraperitoneally, fixed to an operation board, and sterilized in an operation area for later use. […] Muscular layers and abdominal walls were sewed layer by layer, the suture was disinfected with alcohol. After SD rats woke up, the rats were put into a cage for feeding. In the blank group, ureter was not ligated, and other steps were the same. Then, the animals fell into a blank group, a model group, and polypeptide administration groups, and the administration was started on the second day after the operation, twice a day for 14 days. After administration for 14 days, blood was taken and supernatant was taken to detect the content of TGF-β1 in serum. [table]

LX-2 cells = assay: Proliferation of LX-2 cells induced by TGF-β1 (MTT, in vitro hepatic fibrosis model); type: cell-based; details: polypeptide 1 μmol/L, TGF-β1 10 ng/mL, 48 hours; for OD value: MTT, 570 nm
Procedure: LX-2 cells were cultured in 1640 medium containing 10% FBS, and cultured in an incubator with 5% CO2 at 37° C. The medium was replaced every two days, and subcultured according to the cell density. The LX-2 cells in a logarithmic growth phase were digested with 0.25% pancreatin to make cell suspension. The density of the cells was adjusted to 4×10^5 cells/mL, and the cells were inoculated into 96-well plates with 100 μL per well and cultured overnight. On the second day, TGF-β1 was added to induce the proliferation and activation of the LX-2 cells, and the polypeptide drugs were administrated at 1 μmol/L. TGF-β1 (10 ng/mL) was added to each group except the blank group. The cells were cultured in the incubator for 48 hours, and then 10 μL of MTT was added to each well. The MTT was removed after 4 hours, and 150 μL of DMSO was added for reaction for 5 min. An OD value was measured by a microplate reader at 570 nm.

skin fibrosis model mice = assay: Skin fibrosis model induced by bleomycin, HYP in skin tissue; type: in vivo, C57/BL black mice; details: skin tissue of the mouse back; 10 mg/kg subcutaneous twice a day, 28 days, vs model group; FIG. 6
Procedure: Bleomycin (10 μg/mL) was injected subcutaneously every day for 28 days to form skin fibrosis. During the modeling period, the administration groups were given polypeptide drugs every day for treatment, with 10 mice in each group. After modeling, the mice were killed on the next day, and the skin tissue of the mouse back was taken to detect the content of HYP in the skin tissue. [table]

myelofibrosis model mice = assay: Myelofibrosis model induced by rh EPO; type: in vivo, Kunming mice; design: WBC / Hb / MCV / RDW: unit not given here; details: 10 mg/kg subcutaneous twice a day, 28 days; for Hb / MCV / RDW / WBC: peripheral blood; for content of TGF-β1 in serum: mouse serum, vs model group, FIG. 5
Procedure: There were 10 mice in each group. The normal control group was injected with normal saline (0.3 mL for each mouse), and the remaining groups were injected with rh EPO (0.1 unit/gram, body weight, 0.3 mL for each mouse) intraperitoneally every day. After induction for two days, drug therapy was started, subcutaneous injection was given twice a day, and after continuous administration for 28 days, the mouse heart was punctured for blood extraction, some blood was used for peripheral blood analysis, some blood was centrifuged, and the supernatant was taken to measure the content of TGF-β1 in the serum of mice. [table]

[3] = system: cardiac fibroblasts of rats; assay: Proliferation of cardiac fibroblasts of rats (MTT, in vitro myocardial fibrosis model); type: cell-based; details: 1 μmol/L; for Optical density values, 12 hours / Optical density values, 24 hours / Optical density values, 48 hours: MTT, 570 nm; for inhibition of the proliferation of cardiac fibroblasts of rats: at 24 hours and 48 hours
Procedure: The inhibitory effect of a polypeptide on cardiac fibroblasts of rats was detected by MTT assay. Cells were cultured in a DMEM medium containing 10% of FBS, the cytoplasm was made into 1×10^5/mL cell suspension, and 100 μL per well was inoculated into a 96-well plate. After the cells adhered to the wall, the medium was replaced with a serum-free DMEM medium, and the serum-free medium was discarded after 24 hours. The cells were cultured with different polypeptides of 1 μmol/L, and 5 multiple wells were set for each concentration. After 12, 24 and 48 hours separately, 10 μL of MTT was added to each well. After 4 hours, MTT was sucked out, and 150 μL of DMSO was added to each well. After reaction for 5 min, an OD value was measured at 570 nm by a microplate reader.

Compound	Survival rate (%) [1]	Inhibitory effect on pulmonary infections, Protozoal pneumonia (protozoa)	Inhibitory effect on pulmonary infections, Fungal pneumonia (pneumonia fungi)	Inhibitory effect on pulmonary infections, Viral pneumonia (adenovirus)	Inhibitory effect on pulmonary infections, Chlamydia pneumonia (chlamydia pneumoniae)	Inhibitory effect on pulmonary infections, Mycoplasma pneumonia (mycoplasma pneumoniae)	Inhibitory effect on pulmonary infections, Pneumonia caused by pulmonary infections (pulmonary infections)	Inhibitory effect on pulmonary infections, Bacterial pneumonia (streptococcus pneumoniae)	content of TGF-β1 in serum [2]	inhibition of proliferation and activation of LX-2 cells, difference from model group (LX-2 cells)	OD value (LX-2 cells)	expression of HYP in the skin tissue (skin fibrosis model mice)	Hb (myelofibrosis model mice)	MCV (myelofibrosis model mice)	RDW (myelofibrosis model mice)	WBC (myelofibrosis model mice)	Optical density values, 12 hours [3]	Optical density values, 24 hours [3]	Optical density values, 48 hours [3]	inhibition of the proliferation of cardiac fibroblasts of rats [3]	further results
COC(=O)c1ccc2c(c1)NC(=O)/C2=C(\Nc1ccc(N(C)C(=O)CN2CCN(C)CC2)cc1)c1ccccc1 [Positive drug, Nintedanib, reference compound]	85.7%																				
Penicillin [reference compound]		39.04 ± 3.71	38.61 ± 3.82	38.07 ± 2.27	30.75 ± 3.31	41.77 ± 5.73	35.67 ± 4.55	35.05 ± 5.75													
RGADRAGGGGPRCWCGE (cysteine pairing not given here) [Polypeptide II]	85.7%	63.60 ± 6.16	65.32 ± 3.07	70.33 ± 9.27	57.81 ± 5.21	54.69 ± 5.72	66.15 ± 5.87	49.25 ± 9.48	highly significantly different from the model group (***P<0.001)	highly significantly different from the model group (**P<0.01)	0.59 ± 0.02	highly significantly different from the model group (***P<0.001)	151 ± 19	51 ± 9	26 ± 3	5.61 ± 1.43	0.325 ± 0.004	0.377 ± 0.015	0.518 ± 0.015	could inhibit the proliferation	
RGADRAGGGGPRCWRGE [Polypeptide I]	78.6%	48.16 ± 5.46	45.65 ± 9.68	58.00 ± 6.84	45.18 ± 7.46	41.48 ± 5.55	52.47 ± 7.88	43.83 ± 7.59	highly significantly different from the model group (**P<0.01)	significantly different from the model group (*P<0.05)	0.66 ± 0.02	highly significantly different from the model group (***P<0.001)	143 ± 23	52 ± 4	31 ± 2	5.97 ± 1.76	0.326 ± 0.006	0.392 ± 0.008	0.580 ± 0.012	could inhibit the proliferation	content of TGF-β1 in serum (myelofibrosis model mice): highly significantly different from the model group (**P<0.01)
RGADRAGGGGPRCYCGE (cysteine pairing not given here) [Polypeptide IV]	92.9%	49.04 ± 3.17	48.61 ± 3.22	58.07 ± 2.07	38.85 ± 3.11	43.27 ± 5.63	55.57 ± 4.25	45.05 ± 3.25	highly significantly different from the model group (**P<0.01)	significantly different from the model group (*P<0.05)	0.64 ± 0.03	highly significantly different from the model group (*P<0.05)	155 ± 16	54 ± 5	24 ± 1	5.83 ± 1.07	0.309 ± 0.010	0.385 ± 0.008	0.598 ± 0.013	could inhibit the proliferation	content of TGF-β1 in serum (myelofibrosis model mice): highly significantly different from the model group (**P<0.01)

Source: US12404303B2, “Polypeptide and use thereof” (NANJING ANJI BIOLOGICAL TECHNOLOGY CO., LTD., priority 2019, dated 2025)
